Experimental findings from patent US9012489B2, “Phenyl-3-aza-bicyclo[3.1.0]hex-3-yl-methanones and the use thereof as medicament” (Boehringer Ingelheim International GmbH, priority 2011, dated 2015) are described below.

This assay concerns the target T1, GlyT1 transporter (Homo sapiens, UniProt P48067).
T1 construct: endogenously expressing the GlyT1 transporter; host or cells: SK-N-MC human neuroblastoma cells
T1 sequence (P48067 1-706): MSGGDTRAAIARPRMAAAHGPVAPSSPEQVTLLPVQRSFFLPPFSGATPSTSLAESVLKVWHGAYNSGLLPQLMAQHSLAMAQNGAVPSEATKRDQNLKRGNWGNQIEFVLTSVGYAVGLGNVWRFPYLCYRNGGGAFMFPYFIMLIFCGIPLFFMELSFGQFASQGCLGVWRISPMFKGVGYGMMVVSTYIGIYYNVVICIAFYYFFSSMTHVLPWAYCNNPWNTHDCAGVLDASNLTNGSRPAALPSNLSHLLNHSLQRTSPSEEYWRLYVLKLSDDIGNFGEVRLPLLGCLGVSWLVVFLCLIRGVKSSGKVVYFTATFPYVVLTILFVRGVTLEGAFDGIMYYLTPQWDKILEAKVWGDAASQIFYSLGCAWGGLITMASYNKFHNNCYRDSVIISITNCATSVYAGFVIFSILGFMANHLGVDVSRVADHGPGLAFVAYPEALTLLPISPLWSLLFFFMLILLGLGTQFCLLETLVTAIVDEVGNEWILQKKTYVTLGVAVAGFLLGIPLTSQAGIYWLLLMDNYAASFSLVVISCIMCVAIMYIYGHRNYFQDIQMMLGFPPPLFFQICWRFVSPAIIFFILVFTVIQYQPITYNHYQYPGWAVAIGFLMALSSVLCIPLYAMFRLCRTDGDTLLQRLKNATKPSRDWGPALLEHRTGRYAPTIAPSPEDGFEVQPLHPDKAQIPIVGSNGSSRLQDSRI
Put plainly: GlyT1 assay: 3H-glycine uptake into SK-N-MC cells (Cytostar-T format). As to conditions: glycine uptake in human SK-N-MC cells endogenously expressing GlyT1; 500 nM glycine, 1% DMSO, signal recorded over 60 min. The assay is classed as cell-based. The gist of the method: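 Uptake slopes, measured over 60 min from the linear kinetic range, give IC50 from 8 compound concentrations, with 10 μM RG-1678 setting background. Substrate is 500 nM glycine (250 nM ³H, 250 nM unlabelled) in HBSS/5 mM alanine, 1% DMSO, after roughly 5-10 min compound preincubation. Cells: confluent SK-N-MC endogenously expressing human GlyT1.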
As usually defined, the IC50 is the concentration that gives 50% inhibition. A high value points to lower potency. In turn, `CCS(=O)(=O)c1ccc(O[C@H](C)C(F)(F)F)c(C(=O)N2CC3CC3(c3nccc(C(F)(F)F)n3)C2)c1` (single isomer, unassigned) [Example 78, [5-Ethanesulfonyl-2-(2,2,2-trifluoro-1-methyl-ethoxy)-phenyl]-[1-(4-trifluoromethyl-pyrimidin-2-yl)-3-aza-bicyclo[3.1.0]hex-3-yl]-methanone] showed a half-inhibitory concentration (IC50) of 7 nM.

Regarding `CCS(=O)(=O)c1ccc(O[C@@H](C)C(F)(F)F)c(C(=O)N2CC3CC3(c3nccc(C(F)(F)F)n3)C2)c1` (single isomer, unassigned) [Example 75, [5-Ethanesulfonyl-2-(2,2,2-trifluoro-1-methyl-ethoxy)-phenyl]-[1-(4-trifluoromethyl-pyrimidin-2-yl)-3-aza-bicyclo[3.1.0]hex-3-yl]-methanone], inhibition was half-maximal at 110 nM (IC50).

For the compound `C[C@H](Oc1ccc(S(C)(=O)=O)cc1C(=O)N1CC2CC2(c2nnc(C(F)(F)F)o2)C1)C(F)(F)F` (mixture of isomers) [Example 125, [5-Methanesulfonyl-2-(2,2,2-trifluoro-1-methyl-ethoxy)-phenyl]-[1-(5-trifluoromethyl-[1,3,4]oxadiazol-2-yl)-3-aza-bicyclo[3.1.0]hex-3-yl]-methanone], the IC50 worked out at 31 nM. Against the preceding compound, the IC50 is about 3.5-fold lower. Regarding `C[C@@H](Oc1ccc(S(C)(=O)=O)cc1C(=O)N1CC2CC2(c2nc(C3CC3)no2)C1)C(F)(F)F` (mixture of isomers) [Example 145, [1-(3-Cyclopropyl-[1,2,4]oxadiazol-5-yl)-3-aza-bicyclo[3.1.0]hex-3-yl]-[5-methanesulfonyl-2-(2,2,2-trifluoro-1-methyl-ethoxy)-phenyl]-methanone], the IC50 is 7 nM. In the case of `C[C@@H](Oc1ccc(S(C)(=O)=O)cc1C(=O)N1CC2CC2(c2nnc(C3(C(F)(F)F)CC3)o2)C1)C(F)(F)F` (single isomer, unassigned) [Example 149, [5-Methanesulfonyl-2-(2,2,2-trifluoro-1-methyl-ethoxy)-phenyl]-{1-[5-(1-trifluoromethyl-cyclopropyl)-[1,3,4]oxadiazol-2-yl]-3-aza-bicyclo[3.1.0]hex-3-yl}-methanone], the IC50 was found to be 8 nM.

As for `C[C@@H](Oc1ccc(S(C)(=O)=O)cc1C(=O)N1CC2CC2(c2csc(C(F)(F)F)n2)C1)C(F)(F)F` (single isomer, unassigned) [Example 30, [5-Methanesulfonyl-2-(2,2,2-trifluoro-1-methyl-ethoxy)-phenyl]-[1-(2-trifluoromethyl-thiazol-4-yl)-3-aza-bicyclo[3.1.0]hex-3-yl]-methanone], the IC50 was determined as 5 nM. Compound `C[C@@H](Oc1ccc(S(C)(=O)=O)cc1C(=O)N1CC2CC2(c2coc(C3CC3)n2)C1)C(F)(F)F` (single isomer, unassigned) [Example 82] yielded an IC50 of 782 nM. `C[C@H](Oc1ccc(S(C)(=O)=O)cc1C(=O)N1CC2CC2(c2coc(C3CC3)n2)C1)C(F)(F)F` (mixture of isomers) [Example 80, [1-(2-Cyclopropyl-oxazol-4-yl)-3-aza-bicyclo[3.1.0]hex-3-yl]-[5-methanesulfonyl-2-((S)-2,2,2-trifluoro-1-methyl-ethoxy)-phenyl]-methanone] came in with an IC50 of 3 nM.

Compound `C[C@H](Oc1ccc(S(C)(=O)=O)cc1C(=O)N1CC2CC2(c2noc(C(F)(F)F)n2)C1)C(F)(F)F` (mixture of isomers) [Example 1, [5-Methanesulfonyl-2-(2,2,2-trifluoro-1-methyl-ethoxy)-phenyl]-[1-(5-trifluoromethyl-[1,2,4]oxadiazol-3-yl)-3-aza-bicyclo[3.1.0]hex-3-yl]-methanone] gave an IC50 of 39 nM.

`CCS(=O)(=O)c1ccc(O[C@@H](C)C(F)(F)F)c(C(=O)N2CC3CC3(c3cc(C(F)(F)F)on3)C2)c1` (single isomer, unassigned) [Example 104, [5-Ethanesulfonyl-2-(2,2,2-trifluoro-1-methyl-ethoxy)-phenyl]-[1-(5-trifluoromethyl-isoxazol-3-yl)-3-aza-bicyclo[3.1.0]hex-3-yl]-methanone]: inhibition was half-maximal at 292 nM (IC50). Compound `CCS(=O)(=O)c1ccc(O[C@H](C)C(F)(F)F)c(C(=O)N2CC3CC3(c3nccc(C(F)(F)F)n3)C2)c1` (single isomer, unassigned) [Example 77, [5-Ethanesulfonyl-2-(2,2,2-trifluoro-1-methyl-ethoxy)-phenyl]-[1-(4-trifluoromethyl-pyrimidin-2-yl)-3-aza-bicyclo[3.1.0]hex-3-yl]-methanone] had an IC50 of 113 nM. For the compound `Cc1c(C23CC2CN(C(=O)c2cc(S(C)(=O)=O)ccc2O[C@@H](C)C(F)(F)F)C3)noc1C(F)(F)F` (single isomer, unassigned) [Example 164], the IC50 stood at 28 nM. This IC50 lies about 4-fold lower than the previous one. In turn, `CC(C)Oc1ccc(S(C)(=O)=O)cc1C(=O)N1CC2CC2(c2nc(C(F)(F)F)co2)C1` (racemic) [Example 110, (2-Isopropoxy-5-methanesulfonyl-phenyl)-[1-(4-trifluoromethyl-oxazol-2-yl)-3-aza-bicyclo[3.1.0]hex-3-yl]-methanone] displayed an IC50 of 1130 nM. As to `Cc1cnc(C23CC2CN(C(=O)c2cc(S(C)(=O)=O)ccc2O[C@@H](C)C(F)(F)F)C3)o1` (single isomer, unassigned) [Example 22, [5-Methanesulfonyl-2-(2,2,2-trifluoro-1-methyl-ethoxy)-phenyl]-[1-(5-methyl-oxazol-2-yl)-3-aza-bicyclo[3.1.0]hex-3-yl]-methanone], the IC50 worked out at 5 nM. Compared with the last compound, the IC50 is about 230-fold lower. Regarding `CC(C)Oc1ccc(S(C)(=O)=O)cc1C(=O)N1CC2CC2(c2noc(C(F)(F)F)n2)C1` (single isomer, unassigned) [Example 97, (2-Isopropoxy-5-methanesulfonyl-phenyl)-[1-(5-trifluoromethyl-[1,2,4]oxadiazol-3-yl)-3-aza-bicyclo[3.1.0]hex-3-yl]-methanone], the IC50 was 8 nM. The same measure for `Cc1cnc(C23CC2CN(C(=O)c2cc(S(C)(=O)=O)ccc2O[C@@H](C)C(F)(F)F)C3)o1` (mixture of isomers) [Example 21, [5-Methanesulfonyl-2-(2,2,2-trifluoro-1-methyl-ethoxy)-phenyl]-[1-(5-methyl-oxazol-2-yl)-3-aza-bicyclo[3.1.0]hex-3-yl]-methanone]: 21 nM; for `C[C@H](Oc1ccc(S(C)(=O)=O)cc1C(=O)N1CC2CC2(c2nc(C3CC3)no2)C1)C(F)(F)F` (single isomer, unassigned) [Example 143, [1-(3-Cyclopropyl-[1,2,4]oxadiazol-5-yl)-3-aza-bicyclo[3.1.0]hex-3-yl]-[5-methanesulfonyl-2-(2,2,2-trifluoro-1-methyl-ethoxy)-phenyl]-methanone]: 7 nM; for `C[C@H](Oc1ccc(S(C)(=O)=O)cc1C(=O)N1CC2CC2(c2nccc(C(F)(F)F)n2)C1)C(F)(F)F` (single isomer, unassigned) [Example 16, [5-Methanesulfonyl-2-(2,2,2-trifluoro-1-methyl-ethoxy)-phenyl]-[1-(4-trifluoromethyl-pyrimidin-2-yl)-3-aza-bicyclo[3.1.0]hex-3-yl]-methanone]: 10 nM. `C[C@H](Oc1ccc(S(C)(=O)=O)cc1C(=O)N1CC2CC2(c2nnc(C3(C(F)(F)F)CC3)o2)C1)C(F)(F)F` (single isomer, unassigned) [Example 153, [5-Methanesulfonyl-2-(2,2,2-trifluoro-1-methyl-ethoxy)-phenyl]-{1-[5-(1-trifluoromethyl-cyclopropyl)-[1,3,4]oxadiazol-2-yl]-3-aza-bicyclo[3.1.0]hex-3-yl}-methanone] registered an IC50 of 1200 nM.

Regarding `C[C@H](Oc1ccc(S(C)(=O)=O)cc1C(=O)N1CC2CC2(c2nccc(C(F)(F)F)n2)C1)C(F)(F)F` (single isomer, unassigned) [Example 17, [5-Methanesulfonyl-2-(2,2,2-trifluoro-1-methyl-ethoxy)-phenyl]-[1-(4-trifluoromethyl-pyrimidin-2-yl)-3-aza-bicyclo[3.1.0]hex-3-yl]-methanone], the IC50 worked out at 157 nM.

`C[C@H](Oc1ccc(S(C)(=O)=O)cc1C(=O)N1CC2CC2(c2nc(C(F)(F)F)no2)C1)C(F)(F)F` (single isomer, unassigned) [Example 84, [5-Methanesulfonyl-2-(2,2,2-trifluoro-1-methyl-ethoxy)-phenyl]-[1-(3-trifluoromethyl-[1,2,4]oxadiazol-5-yl)-3-aza-bicyclo[3.1.0]hex-3-yl]-methanone] came in with an IC50 of 16 nM. In the case of `C[C@@H](Oc1ccc(S(C)(=O)=O)cc1C(=O)N1CC2CC2(c2noc(C(F)(F)F)n2)C1)C(F)(F)F` (single isomer, unassigned) [Example 4, [5-Methanesulfonyl-2-(2,2,2-trifluoro-1-methyl-ethoxy)-phenyl]-[1-(5-trifluoromethyl-[1,2,4]oxadiazol-3-yl)-3-aza-bicyclo[3.1.0]hex-3-yl]-methanone] it was 9 nM.
